The text below walks through data of patent US11014917B2, “5-fluoro-c-(aryl or heterocyclyl)-glycoside derivatives useful as dual SGLT1 / SGLT2 modulators” (Janssen Pharmaceutica NV, priority 2017, dated 2021).

As a reminder, the inhibition is the share of the control response that was lost under treatment. Lower therefore signals little suppression. The IC50 is the concentration needed to halve the response being measured. A high value points to a need for much substance.

The target in one assay is T1, human SGLT1 (Homo sapiens, UniProt P13866).
T1 construct: expressed in transfected cells
T1 sequence (P13866 1-664): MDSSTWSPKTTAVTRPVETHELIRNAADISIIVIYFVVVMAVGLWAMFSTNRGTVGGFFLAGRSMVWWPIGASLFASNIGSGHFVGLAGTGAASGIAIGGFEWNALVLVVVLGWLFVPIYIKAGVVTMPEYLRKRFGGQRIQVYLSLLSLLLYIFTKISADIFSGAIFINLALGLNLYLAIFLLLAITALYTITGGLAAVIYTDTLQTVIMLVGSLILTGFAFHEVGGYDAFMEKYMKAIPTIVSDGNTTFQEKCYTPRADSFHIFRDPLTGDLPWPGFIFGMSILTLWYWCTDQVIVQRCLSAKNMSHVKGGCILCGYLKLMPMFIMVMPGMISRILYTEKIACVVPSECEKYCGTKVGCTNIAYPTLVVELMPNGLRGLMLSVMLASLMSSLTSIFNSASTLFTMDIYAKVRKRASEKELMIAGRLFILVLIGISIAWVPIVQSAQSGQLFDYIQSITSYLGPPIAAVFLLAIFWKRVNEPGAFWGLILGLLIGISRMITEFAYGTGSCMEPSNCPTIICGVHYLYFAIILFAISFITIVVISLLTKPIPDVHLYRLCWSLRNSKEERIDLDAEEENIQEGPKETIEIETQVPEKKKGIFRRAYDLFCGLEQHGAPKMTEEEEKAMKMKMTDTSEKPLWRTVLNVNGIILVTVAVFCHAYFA
Nature of the assay: SGLT1 assay: Na-dependent 14C-AMG uptake in CHO-K1 cells stably expressing human SGLT1. The settings on record: for IC50: average if tested more than once. The format is cell-based. The procedure, abridged: (§1)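 Stable CHO-K1 lines were pretreated 24 h with 10 mM Na-butyrate, then compound (0.001–10 μM) for 10 min in Na+ buffer (137 mM NaCl, pH 7.4). Uptake of 14C-AMG (500 μM final, 0.07 μCi/well) over 2 h at 37° C measured by scintillation; %-inhibition or IC50.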

Another assay deals with T2, human SGLT2 (Homo sapiens, UniProt P31639).
T2 construct: expressed in transfected cells
T2 sequence (P31639 1-672): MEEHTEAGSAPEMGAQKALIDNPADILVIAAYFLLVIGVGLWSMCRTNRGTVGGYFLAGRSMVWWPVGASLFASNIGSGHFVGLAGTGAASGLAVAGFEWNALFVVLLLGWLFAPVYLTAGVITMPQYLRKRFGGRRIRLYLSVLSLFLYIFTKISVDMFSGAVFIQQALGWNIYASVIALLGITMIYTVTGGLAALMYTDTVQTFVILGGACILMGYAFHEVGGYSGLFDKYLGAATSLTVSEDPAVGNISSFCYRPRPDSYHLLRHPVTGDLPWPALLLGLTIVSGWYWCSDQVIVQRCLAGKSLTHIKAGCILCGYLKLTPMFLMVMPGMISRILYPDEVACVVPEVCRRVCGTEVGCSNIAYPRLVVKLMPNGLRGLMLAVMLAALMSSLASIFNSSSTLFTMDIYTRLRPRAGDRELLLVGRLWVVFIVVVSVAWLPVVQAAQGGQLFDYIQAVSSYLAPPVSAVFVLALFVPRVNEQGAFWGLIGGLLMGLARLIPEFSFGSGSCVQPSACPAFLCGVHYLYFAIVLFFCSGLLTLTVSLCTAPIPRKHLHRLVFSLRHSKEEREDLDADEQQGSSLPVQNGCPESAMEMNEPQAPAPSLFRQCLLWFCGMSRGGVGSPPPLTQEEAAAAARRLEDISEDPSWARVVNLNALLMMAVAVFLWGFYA
Nature of the assay: SGLT2 assay: Na-dependent 14C-AMG uptake in CHO-K1 cells stably expressing human SGLT2. It is filed as cell-based. As to conditions: for IC50: average if tested more than once. The procedure, abridged: as §1

Each structure is given as a SMILES string.

For `COc1c(Cc2ccc3c(c2)CCCO3)cc([C@@H]2O[C@H](CO)[C@@H](F)[C@H](O)[C@H]2O)c2c1CCO2` [Compound 126, (2S,3R,4R,5S,6R)-2-(5-(chroman-6-ylmethyl)-4-methoxy-2,3-dihydrobenzofuran-7-yl)-5-fluoro-6-(hydroxymethyl)-tetrahydro-2H-pyran-3,4-diol], the inhibition at 0.3 µM against human SGLT1 (@ 0.3 μM) turned out to be 21.7%; against human SGLT2 (@ 0.3 μM) it was 16.8%.
Turning to `OC[C@H]1O[C@@H](c2cc(Cc3ccc4c(c3)SCCO4)c(Cl)c3c2OCC3)[C@H](O)[C@@H](O)[C@@H]1F` [Compound 127], the SGLT1 %-inhibition at human SGLT1 (@ 0.3 μM) was found to be 63.2% @ 0.3 μM. The compound further registered an SGLT2 %-inhibition on human SGLT2 (@ 0.3 μM) of 78.4% @ 0.3 μM.
With `COc1c(Cc2ccc3c(c2)SCCO3)cc([C@@H]2O[C@H](CO)[C@@H](F)[C@H](O)[C@H]2O)c2c1CCO2` [Compound 128, (2S,3R,4R,5S,6R)-2-(5-((2,3-dihydrobenzo[b][1,4]oxathiin-6-yl)methyl)-4-methoxy-2,3-dihydrobenzofuran-7-yl)-5-fluoro-6-(hydroxymethyl)-tetrahydro-2H-pyran-3,4-diol], the IC50 at human SGLT1 was determined as 187 nM; against human SGLT2, 62 nM.
As to `Cc1cc(O)c([C@@H]2O[C@H](CO)[C@@H](F)[C@H](O)[C@H]2O)cc1Cc1cc2c(s1)C(=O)CCO2` [Compound 129], the figures for the IC50 against human SGLT1 and against human SGLT2 were 176 nM and 7 nM, respectively.
On human SGLT1 (@ 0.3 μM), `Cc1c(Cc2ccc3c(c2)CCCO3)cc([C@@H]2O[C@H](CO)[C@@H](F)[C@H](O)[C@H]2O)c2c1CCO2` [Compound 130] displayed an SGLT1 %-inhibition of 44.8% @ 0.3 μM. On human SGLT2 (@ 0.3 μM), this compound showed an SGLT2 %-inhibition of 81.6% @ 0.3 μM.
For `Cc1c([C@@H]2O[C@H](CO)[C@@H](F)[C@H](O)[C@H]2O)cc(Cc2ccc3c(c2)SCCO3)c2c1CCO2` [Compound 131], the IC50 is 231 nM at human SGLT1 and 12 nM against human SGLT2.
On to `Cc1c(Cc2ccc3c(c2)SCCO3)cc([C@@H]2O[C@H](CO)[C@@H](F)[C@H](O)[C@H]2O)c2c1CCO2` [Compound 132], for which the results for the IC50 on human SGLT1 and against human SGLT2 were 135 nM and 23 nM, respectively.
Consider `OC[C@H]1O[C@@H](c2cc3c(c(Cc4ccc(OCF)cc4)c2)OCC3)[C@H](O)[C@@H](O)[C@@H]1F` [Compound 133], for which the IC50 against human SGLT1 is 236 nM; against human SGLT2 it was 6 nM.
On to `CCc1ccc(Cc2cc([C@@H]3O[C@H](CO)[C@@H](F)[C@H](O)[C@H]3O)cc3c2OCC3)cc1` [Compound 134], for which the IC50 on human SGLT1 amounted to 254 nM; against human SGLT2, 12 nM.
Taken in the same sequence, the figures for `CCc1ccc(Cc2cc([C@@H]3O[C@H](CO)[C@@H](F)[C@H](O)[C@H]3O)c(OC)c3c2OCC3)cc1` [Compound 135] were 85 nM and 8 nM.
`Cc1cc(N2CCc3sc(Cc4cc([C@@H]5O[C@H](CO)[C@@H](F)[C@H](O)[C@H]5O)ccc4C)cc3C2)c(C)s1` [Compound 138]: the SGLT1 %-inhibition at human SGLT1 (@ 0.3 μM) was 37.5% @ 0.3 μM. Moreover, the SGLT2 %-inhibition on human SGLT2 (@ 0.3 μM) is recorded as 46.7% @ 0.3 μM.
Compound `COc1c([C@@H]2O[C@H](CO)[C@@H](F)[C@H](O)[C@H]2O)cc(Cc2ccc(OCF)cc2)c2c1CCO2` [Compound 142] returned an SGLT1 %-inhibition at human SGLT1 (@ 0.3 μM) of 59.8% @ 0.3 μM. Besides, the SGLT2 %-inhibition at human SGLT2 (@ 0.3 μM) is on record as 85.8% @ 0.3 μM.
With `COc1c(Cc2ccc3c(c2)CC3)cc([C@@H]2O[C@H](CO)[C@@H](F)[C@H](O)[C@H]2O)c2c1CCO2` [Compound 152], the IC50 at human SGLT1 and at human SGLT2 was 6 nM throughout.
As to `OC[C@H]1O[C@@H](c2cc(Cc3ccc4c(c3)OCCO4)c3c(c2)OCC3)[C@H](O)[C@@H](O)[C@@H]1F` [Compound 153], the IC50 was 50 nM against human SGLT1 and 58 nM against human SGLT2.
For `OC[C@H]1O[C@@H](c2cc(Cc3ccc4c(c3)OCCO4)c(Cl)c3c2CCO3)[C@H](O)[C@@H](O)[C@@H]1F` [Compound 154], the half-inhibitory concentration (IC50) on human SGLT1 worked out at 42 nM; at human SGLT2, 2 nM.
For the compound `[2H]C([2H])(c1ccc2c(c1)OCCO2)c1cc([C@@H]2O[C@H](CO)[C@@H](F)[C@H](O)[C@H]2O)ccc1CC` [Compound 156], the values for the IC50 against human SGLT1 and against human SGLT2 were 86 nM and 10 nM, respectively.
`[2H]C([2H])(c1ccc2c(c1)OCCO2)c1cc([C@@H]2O[C@H](CO)[C@@H](F)[C@H](O)[C@H]2O)ccc1CC` [Compound 157] gave an SGLT1 %-inhibition at human SGLT1 (@ 0.3 μM) of 47.7% @ 0.3 μM. In addition, at human SGLT2 (@ 0.3 μM), the SGLT2 %-inhibition is given as 61.9% @ 0.3 μM.
At human SGLT1 (@ 0.3 μM), `CCc1ccc([C@@H]2O[C@H](CO)[C@@H](F)[C@H](O)[C@H]2O)cc1Cc1ccc2c(c1)OC(F)(F)O2` [Compound 158] had an SGLT1 %-inhibition of 2.6% @ 0.3 μM. For the same compound, the SGLT2 %-inhibition on human SGLT2 (@ 0.3 μM) came to 18.0% @ 0.3 μM.
As for `CCc1ccc([C@@H]2O[C@H](CO)[C@@H](F)[C@H](O)[C@H]2O)cc1Cc1ccc2c(c1)OC(F)(F)O2` [Compound 159], the SGLT1 %-inhibition on human SGLT1 (@ 0.3 μM) was 6.0% @ 0.3 μM. On human SGLT2 (@ 0.3 μM), the SGLT2 %-inhibition is reported as 0.0% @ 0.3 μM.
On to `[2H]C([2H])([2H])Oc1c([C@@H]2O[C@H](CO)[C@@H](F)[C@H](O)[C@H]2O)cc(Cc2ccc3c(c2)OCCO3)c2c1CCO2` [Compound 160, (2S,3R,4R,5S,6R)-2-[7-(2,3-dihydro-1,4-benzodioxin-6-ylmethyl)-4-(trideuteriomethoxy)-2,3-dihydrobenzofuran-5-yl]-5-fluoro-6-(hydroxymethyl)tetrahydropyran-3,4-diol], for which the values for the IC50 against human SGLT1 and on human SGLT2 were 71 nM and 8 nM, respectively.
Regarding `[2H]C([2H])([2H])Oc1c([C@@H]2O[C@H](CO)[C@@H](F)[C@H](O)[C@H]2O)cc(C([2H])([2H])c2ccc3c(c2)OCCO3)c2c1CCO2` [Compound 161, (2S,3R,4R,5S,6R)-2-(7-((2,3-dihydrobenzo[b][1,4]dioxin-6-yl-)methyl-d2)-4-(methoxy-d3)-2,3-dihydrobenzofuran-5-yl)-5-fluoro-6-(hydroxymethyl)tetrahydro-2H-pyran-3,4-diol], the IC50 against human SGLT1 was determined as 52 nM; against human SGLT2, 7 nM.
As to `[2H]C([2H])(c1ccc2c(c1)OCCO2)c1cc([C@@H]2O[C@H](CO)[C@@H](F)[C@H](O)[C@H]2O)c(OC)c2c1OCC2` [Compound 163, (2S,3R,4R,5S,6R)-2-[7-[dideuterio(2,3-dihydro-1,4-benzodioxin-6-yl)methyl]-4-methoxy-2,3-dihydrobenzofuran-5-yl]-5-fluoro-6-(hydroxymethyl)tetrahydropyran-3,4-diol], the IC50 on human SGLT1 was 50 nM; at human SGLT2, 8 nM.
For `[2H]C([2H])(c1ccc2c(c1)OCCO2)c1cc([C@@H]2O[C@H](CO)[C@@H](F)[C@H](O)[C@H]2O)c(F)cc1OC` [Compound 165] the same measures were 56 nM and 16 nM.
`[2H]C([2H])(c1ccc2c(c1)OCCO2)c1cc([C@@H]2O[C@H](CO)[C@@H](F)[C@H](O)[C@H]2O)ccc1Cl` [Compound 166]: the IC50 stood at 245 nM at human SGLT1 and 11 nM on human SGLT2.
`[2H]C([2H])(c1ccc2c(c1)OCCO2)c1cc([C@@H]2O[C@H](CO)[C@@H](F)[C@H](O)[C@H]2O)ccc1C` [Compound 167] yielded an SGLT1 %-inhibition on human SGLT1 (@ 0.3 μM) of 37.9% @ 0.3 μM. On human SGLT2 (@ 0.3 μM), this compound showed an SGLT2 %-inhibition of 80.1% @ 0.3 μM.
Regarding `[2H]C([2H])(c1ccc2c(c1)CCCO2)c1cc([C@@H]2O[C@H](CO)[C@@H](F)[C@H](O)[C@H]2O)ccc1CC` [Compound 169], the SGLT1 %-inhibition on human SGLT1 (@ 0.3 μM) amounted to 37.2% @ 0.3 μM. On human SGLT2 (@ 0.3 μM), the SGLT2 %-inhibition is listed as 72.7% @ 0.3 μM.
The compound `[2H]C([2H])(c1ccc2c(c1)CCCO2)c1cc([C@@H]2O[C@H](CO)[C@@H](F)[C@H](O)[C@H]2O)ccc1OC` [Compound 171] had an SGLT1 %-inhibition on human SGLT1 (@ 0.3 μM) of 27.1% @ 0.3 μM. Further, the SGLT2 %-inhibition on human SGLT2 (@ 0.3 μM) was 69.9% @ 0.3 μM.
